Experimental data from paper PMC6770728, “CYP2D6 Genotype Predicts Plasma Concentrations of Tamoxifen Metabolites in Ethiopian Breast Cancer Patients” (Cancers, 2019).
Read-outs that look alike come from different tables or passages of the source.

Legend:
[1] = Plasma concentrations of tamoxifen and its metabolites by LC-MS/MS in breast cancer patients on adjuvant tamoxifen; type: in vivo, human; conditions: for Plasma concentration (median + IQR): 81 Ethiopian breast cancer patients, tamoxifen 20 mg/day for at least three months; for MR E/NDM: listed as E
Protocol: This study was conducted at the radiotherapy center of Tikur Anbessa specialized hospital, Addis Ababa University, Addis Ababa, Ethiopia. A total of 81 female breast cancer patients who were on adjuvant tamoxifen were enrolled. These patients had completed a full course of chemotherapy and were on tamoxifen 20 mg/day for at least three months. None of the study participants were taking any known CYP2D6 enzyme inhibitor as co-medication. The study protocol was approved by the Institutional Review Board (IRB) of the College of Health Sciences, Addis Ababa University (AAU) (Ref No: 011/16/2016), the Armauer Hansen Research Institute Ethical Review Committee (AAERC) (Ref No: PO26/16) and the Ethiopian National Research Ethics Review Committee (NRERC) (Ref No: 3.10/235/2017). Signed informed consent was obtained from individual study participants prior to study enrolment. Patients’ demographic, clinical and tumor characteristics including age, menopausal status, performance status, weight, height, body mass index (BMI), histologic type of the tumor, degree of differentiation, tumor size, lymph node involvement, hormone receptor status and co-morbidity status were collected.
Blood samples were collected in EDTA tube, centrifuged at 2500 g for 10 minutes, and the separated plasma was stored at −80 °C until analysis. Tamoxifen (Tam) and its major metabolites N-desmethyltamoxifen (NDM), (Z)-4-hydroxytamoxifen (4-HT), and (Z)-endoxifen (E) were quantified in the TDM Laboratory, Department of Clinical Pharmacology, Karolinska Institutet (Stockholm, Sweden), by ultra-high-performance liquid chromatography (UHPLC) followed by electrospray tandem mass spectrometry (LC-MS/MS). Briefly, 400 µL internal standard solution (containing 2 ng/mL of Z/E-endoxifen-d5, and 4-OH-tamoxifen-d5, and 20 ng/mL of N-desmethyl-tamoxifen-d5, and tamoxifen-d5) was added to 200 µL of thawed plasma samples and mixed for 10 minutes in a micro plate shaker (Vx-2400 Multitube mixer, Troemner, Philadelphia, USA), followed by centrifugation at 3400 rpm at 4 °C for 10 min. The supernatant was then transferred to new glass vial and evaporated to dryness using vacuum centrifuge. The residue was dissolved in 50 µL methanol over a microplate shaker for 10 min and the resulting solution was then centrifuged at 3400 rpm for 10 min at 4 °C. Ten microliter (10 µL) of the solution was injected into the LC system (Dionex Ultimate 3000, UHPLC focused, Thermo Scientific, California, USA) coupled with a mass spectrometer (TSQ Quantiva, Thermo Scientific). Separation occurred on an Accucore C-18 column (150 × 2.1 mm, Thermo Scientific). The mobile phase for gradient elution consisted of solution A (10 mmol/L ammonium formate with 0.005% formic acid in water) and solution B (10 mmol/L ammonium formate with 0.005% formic acid in 99% methanol). The LC conditions were: column oven temperature of 40 °C, flow rate of 0.50 mL/min, autosampler temperature of 10 °C. Detection was in positive ion mode using electrospray ionization and monitored using Trace Finder software (Thermo Scientific). Under this condition, the retention times were 3.25, 3.26, 3.38, 4.03, and 4.11 min for E-endoxifen, Z-endoxifen, 4-OH-tamoxifen, N-desmethyltamoxifen, and tamoxifen, respectively. Calibration curves were constructed by plotting the ratio of the area of the compound and the internal standard against the standard analyte concentration. Three quality control (QC) samples involving, (i) low-level QC [QCL] (0.3 ng/mL of E and 4-HT and 3 ng/mL of NDM and Tam, (ii) mid-level QC [QCM] (8 ng/mL of E and 4-HT and 80 ng/mL of NDM and Tam), and (iii) high level QC [QCH] (80 ng/mL of E and 4-HT and 800 ng/mL of NDM and Tam) were also included at each run.
Descriptive statistics were computed to explore the demographic characteristics, clinical profiles, genotype frequencies of participants. Chi-square test was used to compare the observed and expected genotype frequency according to Hardy–Weinberg equilibrium. […]

estrogen receptor (ER) = system: estrogen receptor (ER); parameters: method as in PMID 21451508; conditions: endoxifen level 13 nM; cited from earlier work
[2] = parameters: method as in PMID 21430657; conditions: endoxifen concentration >5.97 ng/mL; cited from earlier work
[3] = cited from earlier work
[4] = UGT2B15 c.1568A>C (rs4148269) wild type genotype
[5] = ABCB1 c.4036A>G (rs3842) wild type genotype
[6] = carriers of the G allele for ABCB1 c.4036A>G (rs3842)

CC/C(=C(\c1ccccc1)c1ccc(OCCN(C)C)cc1)c1ccccc1 [Tamoxifen]
Plasma concentration (median + IQR) [1]: 138 (105–200.5) ng/mL | Median plasma concentration [1, 4]: 173.8 ng/mL | Median plasma concentration ([1]; patients with at least one variant allele for UGT2B15 c.1568A>C (rs4148269)): 125.9 ng/mL | Plasma tamoxifen concentration of all included patients ([1]; the 81 patients included in the analysis): > 150 nM

CC/C(=C(\c1ccc(O)cc1)c1ccc(OCCN(C)C)cc1)c1ccccc1 [4-Hydroxy-tamoxifen, 4-hydroxy-tamoxifen]
Plasma concentration (median + IQR) [1]: 3.04 (2.15–4.0) ng/mL | Plasma concentration (median + IQR) ([1]; listed as 4-HT): 3.04 ng/mL | Metabolic ratio of 4-Hydroxy-tamoxifen to tamoxifen, MR 4-HT/Tam (median + IQR) ([1]; 81 patients, plasma): 0.022 (0.016–0.029)

CC/C(=C(\c1ccccc1)c1ccc(OCCNC)cc1)c1ccccc1 [N-Desmethyl-tamoxifen, N-desmethyltamoxifen]
Plasma concentration (median + IQR) [1]: 257 (185.5–343) ng/mL | Metabolic ratio of N-desmethyl-tamoxifen to tamoxifen, MR NDM/Tam (median + IQR) ([1]; human, in vivo): 1.81 (1.51–2.26)

CC/C(=C(\c1ccc(O)cc1)c1ccc(OCCNC)cc1)c1ccccc1 [Z-Endoxifen, (Z)-endoxifen]
Median endoxifen concentration relative to 4-HT ([1]; 7.94 vs 3.04 ng/mL): 2.6 times | Plasma concentration (median + IQR) [1]: 7.94 (4.68–13.75) ng/mL | Plasma concentration (median + IQR) ([1]; listed as endoxifen): 7.94 ng/mL | Metabolic ratio of endoxifen to 4-hydroxy-tamoxifen, MR E/4-HT (median + IQR) ([1]; 81 patients, plasma): 2.85 (2.10–3.73) | Metabolic ratio of endoxifen to N-desmethyl-tamoxifen, MR E/NDM (median + IQR) ([1]; 81 patients, plasma): 0.038 (0.021–0.06) | MR E/4-HT [1, 5]: 3.02 | MR E/NDM [1, 5]: 0.041 | Patients with low endoxifen concentration (<5.9 ng/mL) / patients in group ([1]; CYP2D6 IM/IM diplotype): 1/1 | Patients with low endoxifen concentration (<5.9 ng/mL) / patients in group ([1]; CYP2D6 IM/PM diplotype): 3/3 | Proportion of patients with low endoxifen concentration (<5.9 ng/mL) ([1]; CYP2D6 NM/IM diplotype (5/12)): 41.7% | Proportion of patients with low endoxifen concentration (<5.9 ng/mL) ([1]; CYP2D6 NM/NM diplotype (11/35)): 31.4% | Proportion of patients with low endoxifen concentration (<5.9 ng/mL) ([1]; CYP2D6 NM/PM diplotype (6/9)): 66.7% | Patients with low endoxifen concentration (<5.9 ng/mL) / patients in group ([1]; CYP2D6 PM/PM diplotype): 1/1 | Median E/4-HT ratio [1, 4]: 2.06 | Proportion of patients with low endoxifen concentration (<5.9 ng/mL) ([1]; all 81 patients): 35.8% | Median E/4-HT ratio ([1]; carriers of C allele for UGT2B15 c.1568A>C (rs4148269)): 2.96 | MR E/4-HT [1, 6]: 2.52 | MR E/NDM [1, 6]: 0.022 | Occupancy of the estrogen receptor (ER) in vitro (estrogen receptor (ER)): 90% | Lower risk of additional breast cancer events [2]: 30% | Proportion of PMs still able to generate therapeutic concentrations of endoxifen ([3]; CYP2D6 PMs, threshold 5.9 ng/mL): 24% | Proportion of CYP2D6 PMs below endoxifen level of 13 nM ([3]; CYP2D6 poor metabolizers): 93% | Endoxifen plasma concentration lower than without CYP2D6 inhibitors ([3]; IMs on CYP2D6 inhibitors vs IMs not on CYP2D6 inhibitors): 38% | Endoxifen plasma concentration lower than without CYP2D6 inhibitors ([3]; NMs taking CYP2D6 inhibitors vs NMs not on CYP2D6 inhibitors): 58% | Proportion of patients unable to attain therapeutic threshold for endoxifen ([3]; Sweden): 30% | Proportion of patients unable to attain therapeutic threshold for endoxifen ([3]; U.S.): 20%
